Patent US8501732B2, “Aminomethyl quinolone compounds” (Hoffmann-La Roche Inc., priority 2011, dated 2013)

Experiments:
[1] = test system: phospho(Ser63)-c-jun in HK-2 cells; assay: Cell-Based Assay for JNK Inhibitors (in-cell ELISA, phospho(Ser63)-c-jun after TNFα); settings: HK-2 cells (human proximal tubule cells), 60 minutes compound, then 10 ng/mL TNFα for 30 minutes
Experimental: Cell-Based Assay for JNK Inhibitors
The cell-based assay employed the in-cell ELISA method to determine the ability of compounds to prevent the generation of phospho(Ser63)-c-jun in HK-2 cells (human proximal tubule cells) in response to stimulation with tumor necrosis factor α (TNFα). In brief, for quantification of phospho(Ser63)-c-jun, the cells (in 96-well format) were fixed and permeablized then incubated sequentially with a rabbit anti-phospho-c-jun First Antibody specific for the presence of the phospho-Ser63 epitope and a donkey anti-rabbit IgG Second Antibody linked to horseradish peroxidase (HRP) for colorimetric quantitation of binding. […] Blank wells received no TNFα stimulation or compound. Additional Control wells received TNFα stimulation, but no compound.
Stock cultures of HK-2 cells (ATCC, Manassas, Va.) were grown under a 5% CO2/[…] atmosphere at 37 degrees C. in Keratinocyte-SFM medium (KSFM, Invitrogen, Grand Island, N.Y.) containing 5 μg/L epidermal growth factor and 5 mg/L bovine pituitary extract (both supplied with the medium), additionally supplemented with 10% (v/v) fetal calf serum (FCS; Invitrogen, Grand Island, N.Y.) and 1% (v/v) antibiotic-antimycotic (ABAM: Sigma, St. Louis, Mo.). For assays, cells were seeded in collagen coated 96-well polystyrene plates (BD Biosciences, Franklin Lakes, N.J.) at a density of 40,000 cells/well and cultured for 24 h in the same medium (100 μL/well) followed by a further 16-24 h in 100 μL of similar medium, but without FCS. […] Plates were then allowed to stand at room temperature for 20 minutes before being washed with 200 μL/well of PBS. (Further steps were performed immediately or the plates were stored at 4 degrees C. and the assay completed the next day.) To each well was added 100 μL 1% (v/v) TritonX-100 (Sigma, St. Louis, Mo.) in PBS followed by 20 minutes standing at room temperature, washing with 200 μL/well PBS, the addition of 100 μL/well of Quenching buffer (1% (v/v) hydrogen peroxide (Sigma, St. Louis, Mo.) and 0.1% (w/v) sodium azide (Fisher Scientific, Fair Lawn, N.J.)) in PBS and a further 20 minutes at room temperature. Plates were then washed twice with 200 μL/well of 0.1% (v/v) Tween-20 (Teknova, Hollister, Calif.) in PBS before addition of 200 μL/well of 2% BSA/0.1% Tween-20 in PBS and a further 1 hour at room temperature. […] After a further one hour, rabbit anti-phospho-c-jun-Ser63 is added directly to the solution in the Blank wells resulting in 1:250 dilution of this antibody. Plates were then placed on a slowly rotating platform at 4 degrees C. overnight. Wells were then washed thrice with 200 μL/well PBS/0.1% Tween-20. After addition of the third wash, the plates were placed on a slowly rotating platform for 15 minutes at room temperature. The final PBS/Tween20 wash was then replaced with 100 μL/well of donkey anti-rabbit HRP-labeled Second Antibody (Jackson ImmunoResearch Laboratory, West Grove, Pa.) diluted 1:10,000 in Antibody Dilution Buffer and the plates placed on a slowly rotating platform for 1 hour at room temperature. Wells were then washed four times with 200 μL/well PBS/0.1% Tween-20, including slow rotation for 30 minutes for the third wash and 10 minutes for the final wash. The wells were then washed once with 200 μL PBS without Tween-20. […] Absorbance was determined at a 450 nm wavelength using a spectrophotometer (Molecular Devices SpectraMax 250).

[2] = molecular target: JNK1 (Homo sapiens (Human), UniProt P45983); assay: In Vitro JNK1 Assay (TR-FRET, phosphorylation of GST-c-Jun); format: biochemical; settings: 0.2 nM active JNK1 kinase, 26.7 nM GST-c-Jun, 2 μM ATP, 30 min at room temperature
Sequence of JNK1 (P45983 whole entry): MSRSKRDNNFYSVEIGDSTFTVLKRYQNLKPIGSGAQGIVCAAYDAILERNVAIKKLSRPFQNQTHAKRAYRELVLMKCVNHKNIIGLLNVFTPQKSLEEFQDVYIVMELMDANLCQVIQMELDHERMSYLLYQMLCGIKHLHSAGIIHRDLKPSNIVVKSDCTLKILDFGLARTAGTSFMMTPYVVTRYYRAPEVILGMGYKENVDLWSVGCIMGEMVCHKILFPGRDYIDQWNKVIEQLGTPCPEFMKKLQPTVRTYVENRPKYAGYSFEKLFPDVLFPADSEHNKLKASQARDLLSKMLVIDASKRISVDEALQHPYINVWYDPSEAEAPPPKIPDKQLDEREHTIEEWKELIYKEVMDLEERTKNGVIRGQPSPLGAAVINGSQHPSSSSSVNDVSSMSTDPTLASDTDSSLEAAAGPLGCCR
How it was run: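 IC50 derived from percent inhibition across 10 serially diluted concentrations, with TR-FRET detection of phospho-c-Jun via an anti-phospho-c-Jun antibody after EDTA stop. Substrate was GST-c-Jun 1-79, reacted 30 min at room temperature in pH 7.0 HEPES buffer with MgCl2, DTT, vanadate and BSA.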

Row | EC50 [1] | IC50 [2] | Structure (SMILES)
1 | 27 µM | 30 nM | COCCNc1ccc(C(=O)NCc2cn(-c3ccccc3)c3cc(Cl)ccc3c2=O)cn1 [Example I-74, N-(7-Chloro-4-oxo-1-phenyl-1,4-dihydro-quinolin-3-ylmethyl)-6-(2-methoxy-ethylamino)-nicotinamide]
2 | 3.8 µM | 10 nM | COC(=O)c1c(CNC(=O)c2ccc(C(N)=O)cc2)c(=O)c2ccc(Cl)cc2n1-c1ccccc1 [Example I-117, 3-[(4-Carbamoyl-benzoylamino)-methyl]-7-chloro-4-oxo-1-phenyl-1,4-dihydro-quinoline-2-carboxylic acid methyl ester]
3 | 9.9 µM | 26 nM | COC(=O)c1c(CNC(=O)c2ccc(S(N)(=O)=O)cc2)c(=O)c2ccc(C(F)(F)F)nc2n1-c1ccccc1 [Example I-154, 4-Oxo-1-phenyl-3-[(4-sulfamoyl-benzoylamino)-methyl]-7-trifluoromethyl-1,4-dihydro-[1,8]naphthyridine-2-carboxylic acid methyl ester]
4 | 47 µM | 120 nM | O=C(NCc1cn(-c2ccccc2F)c2cc(F)ccc2c1=O)c1ccc(N2CCOCC2)nc1 [Example I-108, N-[7-Fluoro-1-(2-fluoro-phenyl)-4-oxo-1,4-dihydro-quinolin-3-ylmethyl]-6-morpholin-4-yl-nicotinamide]
5 | 9.8 µM | 13 nM | COC(=O)c1c(CNC(=O)c2cccnc2)c(=O)c2ccc(Cl)cc2n1-c1ccccc1 [Example I-139, 7-Chloro-4-oxo-1-phenyl-3-{[(pyridine-3-carbonyl)-amino]-methyl}-1,4-dihydro-quinoline-2-carboxylic acid methyl ester]
6 | 39 µM | 69 nM | O=C(NCc1cn(-c2ccccc2)c2cc(Cl)ccc2c1=O)c1cnc(N2CCS(=O)(=O)CC2)s1 [Example I-97, 2-(1,1-Dioxo-thiomorpholin-4-yl)-thiazole-5-carboxylic acid (7-chloro-4-oxo-1-phenyl-1,4-dihydro-quinolin-3-ylmethyl)-amide]
7 | 1.3 µM | 5 nM | COC(=O)c1c(CNC(=O)c2ccc(-c3nnc[nH]3)cc2)c(=O)c2ccc(Cl)cc2n1-c1ccccc1 [Example I-111, 7-Chloro-4-oxo-1-phenyl-3-{[4-(4H-[1,2,4]triazol-3-yl)-benzoylamino]-methyl}-1,4-dihydro-quinoline-2-carboxylic acid methyl ester]
8 | 14 µM | 29 nM | COC(=O)c1c(CNC(=O)c2ccc(-c3nc(C)no3)cc2)c(=O)c2ccc(Cl)cc2n1-c1ccccc1 [Example I-126, 7-Chloro-3-{[4-(3-methyl-[1,2,4]oxadiazol-5-yl)-benzoylamino]-methyl}-4-oxo-1-phenyl-1,4-dihydro-quinoline-2-carboxylic acid methyl ester]
9 | 7 µM | 15 nM | COC(=O)c1c(CNC(=O)c2ccc(F)c(Cl)c2)c(=O)c2ccc(Cl)cc2n1-c1ccccc1 [Example I-141, 7-Chloro-3-[(3-chloro-4-fluoro-benzoylamino)-methyl]-4-oxo-1-phenyl-1,4-dihydro-quinoline-2-carboxylic acid methyl ester]
10 | 25 µM | 72 nM | O=C(NCc1cn(-c2ccccc2)c2cc(Cl)ccc2c1=O)c1cnn(-c2ccccc2)c1 [Example I-37, 1-Phenyl-1H-pyrazole-4-carboxylic acid (7-chloro-4-oxo-1-phenyl-1,4-dihydro-quinolin-3-ylmethyl)-amide]
11 | 100 µM | 65 nM | COC(=O)c1c(CNC(=O)c2ccccc2F)c(=O)c2ccc(Cl)cc2n1-c1ccccc1 [Example I-145, 7-Chloro-3-[(2-fluoro-benzoylamino)-methyl]-4-oxo-1-phenyl-1,4-dihydro-quinoline-2-carboxylic acid methyl ester]
12 | 1.2 µM | 6 nM | COC(=O)c1c(CNC(=O)c2ccc(N3CCOCC3)nc2)c(=O)c2ccc(Cl)cc2n1-c1ccccc1 [Example I-112, 7-Chloro-3-{[(6-morpholin-4-yl-pyridine-3-carbonyl)-amino]-methyl}-4-oxo-1-phenyl-1,4-dihydro-quinoline-2-carboxylic acid methyl ester]
13 | 2.4 µM | 8 nM | COC(=O)c1c(CNC(=O)c2ccc(S(N)(=O)=O)cc2)c(=O)c2ccc(Cl)cc2n1-c1ccccc1 [Example I-115, 7-Chloro-4-oxo-1-phenyl-3-[(4-sulfamoyl-benzoylamino)-methyl]-1,4-dihydro-quinoline-2-carboxylic acid methyl ester]
14 | 12 µM | 81 nM | O=C(NCc1cn(-c2ccccc2)c2cc(Cl)ccc2c1=O)c1ccc(N2CCN(CCO)CC2)nc1 [Example I-83, N-(7-Chloro-4-oxo-1-phenyl-1,4-dihydro-quinolin-3-ylmethyl)-6-[4-(2-hydroxy-ethyl)-piperazin-1-yl]-nicotinamide]
15 | 100 µM | 41 nM | O=C(NCc1cn(-c2ccccc2)c2cc(Cl)ccc2c1=O)c1ccc2nc[nH]c2c1 [Example I-33, 3H-Benzoimidazole-5-carboxylic acid (7-chloro-4-oxo-1-phenyl-1,4-dihydro-quinolin-3-ylmethyl)-amide]
16 | 25 µM | 36 nM | CN(C)C(=O)c1c(CNC(=O)c2cnc(N3CCOCC3)s2)c(=O)c2ccc(Cl)cc2n1-c1ccccc1 [Example I-14, 7-Chloro-3-{[(2-morpholin-4-yl-thiazole-5-carbonyl)-amino]-methyl}-4-oxo-1-phenyl-1,4-dihydro-quinoline-2-carboxylic acid dimethylamide]
17 | 30 µM | 31 nM | O=C(NCc1cn(-c2ccccc2)c2cc(Cl)ccc2c1=O)c1ccnc(N2CCOCC2)c1 [Example I-31, N-(7-Chloro-4-oxo-1-phenyl-1,4-dihydro-quinolin-3-ylmethyl)-2-morpholin-4-yl-isonicotinamide]
18 | 100 µM | 33 nM | O=C(NCc1cn(-c2ccccc2)c2cc(Cl)ccc2c1=O)c1cnc(N2CCC(CO)CC2)s1 [Example I-93, 2-(4-Hydroxymethyl-piperidin-1-yl)-thiazole-5-carboxylic acid (7-chloro-4-oxo-1-phenyl-1,4-dihydro-quinolin-3-ylmethyl)-amide]
19 | 16 µM | 72 nM | COc1cccc(Cn2ccc(C(=O)NCc3cn(-c4ccccc4)c4cc(Cl)ccc4c3=O)cc2=O)c1 [Example I-38, 1-(3-Methoxy-benzyl)-2-oxo-1,2-dihydro-pyridine-4-carboxylic acid (7-chloro-4-oxo-1-phenyl-1,4-dihydro-quinolin-3-ylmethyl)-amide]
20 | 22 µM | 40 nM | CN1CCN(c2ncc(C(=O)NCc3cn(-c4ccccc4)c4cc(Cl)ccc4c3=O)s2)CC1 [Example I-95, 2-(4-Methyl-piperazin-1-yl)-thiazole-5-carboxylic acid (7-chloro-4-oxo-1-phenyl-1,4-dihydro-quinolin-3-ylmethyl)-amide]
21 | 12 µM | 56 nM | O=C(NCc1cn(-c2ccccc2)c2cc(Cl)ccc2c1=O)c1ccc(N2CCS(=O)(=O)CC2)nc1 [Example I-80, N-(7-Chloro-4-oxo-1-phenyl-1,4-dihydro-quinolin-3-ylmethyl)-6-(1,1-dioxo-thiomorpholin-4-yl)-nicotinamide]
